According to ChEMBL document CHEMBL1128869, “-Mercaptoacyl dipeptides that inhibit angiotensin converting enzyme and neutral endopeptidase 24.11” (Bioorg Med Chem Lett, 1995):
pIC50: −log10 of the molar value.

Columns and labels:
[1] = target: Angiotensin-converting enzyme (Homo sapiens, UniProt P12821); experiment: Inhibition of angiotensin converting enzyme (ACE); assay type: protein assay
[2] = target: T1, Neprilysin (Rattus norvegicus, UniProt P07861); experiment: Inhibition of neutral endopeptidase (NEP) 24.11
T1 sequence (P07861 whole entry): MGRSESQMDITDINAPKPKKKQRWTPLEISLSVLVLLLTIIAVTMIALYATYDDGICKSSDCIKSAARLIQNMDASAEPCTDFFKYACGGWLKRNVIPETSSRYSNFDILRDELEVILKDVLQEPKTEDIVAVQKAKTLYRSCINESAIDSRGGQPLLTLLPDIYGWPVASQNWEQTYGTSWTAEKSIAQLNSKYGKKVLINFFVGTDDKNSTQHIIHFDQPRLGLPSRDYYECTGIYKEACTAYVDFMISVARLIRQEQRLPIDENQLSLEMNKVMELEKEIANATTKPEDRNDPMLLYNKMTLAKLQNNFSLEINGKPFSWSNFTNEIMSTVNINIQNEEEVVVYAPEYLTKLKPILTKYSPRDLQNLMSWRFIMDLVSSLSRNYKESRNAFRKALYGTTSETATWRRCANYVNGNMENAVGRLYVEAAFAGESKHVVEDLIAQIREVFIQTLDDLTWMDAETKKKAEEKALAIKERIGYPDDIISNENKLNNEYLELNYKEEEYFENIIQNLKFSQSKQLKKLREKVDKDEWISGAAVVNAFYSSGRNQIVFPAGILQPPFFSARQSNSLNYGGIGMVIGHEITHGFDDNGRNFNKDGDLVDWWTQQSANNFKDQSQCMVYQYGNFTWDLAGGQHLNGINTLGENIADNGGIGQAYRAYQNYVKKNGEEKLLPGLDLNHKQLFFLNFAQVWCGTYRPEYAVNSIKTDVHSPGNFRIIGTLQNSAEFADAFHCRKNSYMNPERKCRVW

[3] = organism: Rattus norvegicus; experiment: Time taken for 50 % or more inhibition of angiotensin-I (AI) induced pressor response in normotensive rats; assay type: functional
[4] = organism: Rattus norvegicus; experiment: Concentration that causes inhibition of angiotensin-I (AI) induced pressor response in normotensive rats after intra arterial injection; assay type: functional
[5] = organism: Rattus norvegicus; experiment: Compound concentration that causes inhibition of angiotensin-I (AI) induced pressor response in normotensive rats after intra arterial injection; assay type: functional

Row | IC50 [1] | pIC50 [2] | SMILES | Duration of action [3] | Inhibition [4] | Inhibition [5]
1 | 183 nM | 6.41 | O=C(N[C@@H](Cc1ccc(-c2ccccc2)cc1)C(=O)N1CCC[C@H]1C(=O)O)[C@@H](S)c1ccc2c(c1)OCO2 | – | – | –
2 | 57 nM | 6.93 | O=C(N[C@@H](Cc1ccc(-c2ccccc2)cc1)C(=O)N1CCC[C@H]1C(=O)O)[C@@H](S)Cc1ccccc1 | 50 min | 10 mg/kg | –
3 | 175 nM | 7.48 | CC(C)[C@H](S)C(=O)N[C@@H](Cc1ccc(-c2ccccc2)cc1)C(=O)N[C@H](C(=O)O)C(C)C | 70 min | – | 10 mg/kg
4 | 304 nM | 6.23 | O=C(N[C@@H](Cc1ccc2ccccc2c1)C(=O)N1CCC[C@H]1C(=O)O)[C@H](S)Cc1ccccc1 | – | – | –
5 | 18 nM | 6.15 | O=C(N[C@@H](Cc1ccc2ccccc2c1)C(=O)N1CCC[C@H]1C(=O)O)[C@@H](S)Cc1ccccc1 | 25 min | 10 mg/kg | –
6 | 62 nM | 7.55 | CC(C)[C@H](S)C(=O)N[C@@H](Cc1ccc(-c2ccccc2)cc1)C(=O)N[C@@H](Cc1ccc(O)cc1)C(=O)O | 60 min | 10 mg/kg | –
7 | 319 nM | 6.30 | CC(C)[C@H](S)C(=O)N[C@@H](Cc1ccc(-c2ccccc2)cc1)C(=O)N1CCC[C@H]1C(=O)O | – | – | –
8 | 688 nM | 7.00 | O=C(N[C@@H](Cc1ccc(-c2ccccc2)cc1)C(=O)O)[C@H](S)Cc1ccccc1 | – | – | –
9 | 27 nM | < 6.00 | O=C(N[C@@H](Cc1cccc2ccccc12)C(=O)N1CCC[C@H]1C(=O)O)[C@H](S)Cc1ccccc1 | – | – | –
10 | 100 nM | 7.37 | CC(C)[C@H](S)C(=O)N[C@@H](Cc1ccc(-c2ccccc2)cc1)C(=O)N[C@@H](CO)C(=O)O | – | – | –
11 | 378 nM | 6.65 | O=C(N[C@@H](Cc1ccc(-c2ccccc2)cc1)C(=O)N1CCC[C@H]1C(=O)O)[C@H](S)c1ccc2c(c1)OCO2 | – | – | –
12 | 229 nM | 7.23 | O=C(N[C@@H](Cc1ccc(-c2ccccc2)cc1)C(=O)N1CCC[C@H]1C(=O)O)[C@H](S)Cc1ccccc1 | – | – | –
13 | 14 nM | < 6.00 | O=C(N[C@@H](Cc1cccc2ccccc12)C(=O)N1CCC[C@H]1C(=O)O)[C@@H](S)Cc1ccccc1 | – | – | –
14 | 80 nM | 6.18 | O=C(O)[C@H](Cc1ccc(-c2ccccc2)cc1)NC(=O)[C@@H](S)Cc1ccccc1 | – | – | –
